pKi: −log10 of the molar value.
Key:
[1] = biological target: T1, norepinephrine (NE) transporter (Rattus norvegicus, UniProt Q63380); test: Binding at native norepinephrine transporter (NE uptake); conditions: Table 8
T1 construct: evaluated at native, tissue-derived transporters; from tissue
How it was run: (§1)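 Binding (Ki) at native, tissue-derived rat serotonin and norepinephrine transporters, measured by the Owens (1997) protocol.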

rat NPFF2 receptor = biological target: T2, rat NPFF2 receptor (Rattus norvegicus, UniProt Q9EQD2); test: Functional assay (agonist potency, intrinsic activity) at cloned rat NPFF2 receptor; assay type: cell-based; conditions: Table 7, intrinsic activity
T2 construct: The full-length NPFF2 was amplified from rat spinal cord cDNA; expressed in transfected cells; host or cells: not given

human Y1 receptor = biological target: T3, human Y1 receptor (Homo sapiens, UniProt P25929); test: Binding at human neuropeptide Y Y1 receptor; conditions: Table 8; read-out: hY1 Ki
T3 construct: host or cells: 293 cells, line 293-hY1-5
T3 sequence (P25929 1-384): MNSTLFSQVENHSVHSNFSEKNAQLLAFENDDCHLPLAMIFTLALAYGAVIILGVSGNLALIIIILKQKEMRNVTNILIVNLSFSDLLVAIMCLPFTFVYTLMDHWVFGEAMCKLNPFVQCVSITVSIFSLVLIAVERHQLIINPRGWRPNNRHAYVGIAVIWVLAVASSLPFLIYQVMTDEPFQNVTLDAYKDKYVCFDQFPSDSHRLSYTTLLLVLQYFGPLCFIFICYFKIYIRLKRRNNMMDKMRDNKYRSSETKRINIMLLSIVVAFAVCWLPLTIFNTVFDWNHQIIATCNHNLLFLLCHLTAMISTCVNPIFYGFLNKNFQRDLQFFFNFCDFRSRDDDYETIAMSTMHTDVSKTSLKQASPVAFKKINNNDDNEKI
From the text: (§2) Neuropeptide receptors: Stably transfected cell lines which may be used for binding experiments include, for the Y1 receptor, 293-hY1-5 (deposited Jun. 4, 1996, under ATCC Accession No. CRL-12121); for the Y2 receptor, 293-hY2-10 (deposited Jan. 27, 1994, under ATCC Accession No. CRL-11837); for the Y4 receptor, L-hY4-3 (deposited Jan. 11, 1995, under ATCC Accession No. CRL 11779); and for the Y5 receptor, L-hY5-7 (deposited Nov. 15, 1995, under ATCC Accession No. CRL 11995).
(§3) Binding assays using the NPY receptors may be carried out according to the procedures described in U.S. Pat. No. 5,602,024, the disclosure of which is hereby incorporated by reference in its entirety into this application.
(§4) The binding affinity (Ki) of these compounds were tested according to the protocols described herein at the following receptors; human α1A, α1B, α1D, α2A, α2B, and α2C adrenergic receptors; human Y1, Y2, Y4, and Y5 receptors; and N-Methyl-D-aspartic acid (NMDA) receptor channels. The binding interactions of these compounds were additionally tested at the norepinephrine (NE) transporter (NE uptake) and serotonin (5-hydroxytryptamine (5HT)) transporter (5HT uptake) according to protocols described herein

human Y2 receptor = biological target: T4, human Y2 receptor (Homo sapiens, UniProt P49146); test: Binding at human neuropeptide Y Y2 receptor; conditions: Table 8; read-out: hY2 Ki
T4 construct: host or cells: 293 cells, line 293-hY2-10
T4 sequence (P49146 1-381): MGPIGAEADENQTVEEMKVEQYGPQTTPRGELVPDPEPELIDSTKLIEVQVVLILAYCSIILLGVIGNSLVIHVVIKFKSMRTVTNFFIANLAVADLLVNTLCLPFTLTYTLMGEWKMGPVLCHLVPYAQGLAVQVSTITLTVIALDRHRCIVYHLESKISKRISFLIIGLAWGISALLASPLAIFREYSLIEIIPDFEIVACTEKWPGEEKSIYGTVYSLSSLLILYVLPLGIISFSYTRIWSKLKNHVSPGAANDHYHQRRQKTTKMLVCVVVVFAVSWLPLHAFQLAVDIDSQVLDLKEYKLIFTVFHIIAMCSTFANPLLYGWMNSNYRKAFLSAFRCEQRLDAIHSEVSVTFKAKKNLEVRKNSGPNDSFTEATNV
From the text: as §2, §3, §4

human Y5 receptor = biological target: T5, human Y5 receptor (Homo sapiens, UniProt Q15761); test: Binding at human neuropeptide Y Y5 receptor; conditions: Table 8; read-out: hY5 Ki
T5 construct: host or cells: L cells, line L-hY5-7
T5 sequence (Q15761 1-445): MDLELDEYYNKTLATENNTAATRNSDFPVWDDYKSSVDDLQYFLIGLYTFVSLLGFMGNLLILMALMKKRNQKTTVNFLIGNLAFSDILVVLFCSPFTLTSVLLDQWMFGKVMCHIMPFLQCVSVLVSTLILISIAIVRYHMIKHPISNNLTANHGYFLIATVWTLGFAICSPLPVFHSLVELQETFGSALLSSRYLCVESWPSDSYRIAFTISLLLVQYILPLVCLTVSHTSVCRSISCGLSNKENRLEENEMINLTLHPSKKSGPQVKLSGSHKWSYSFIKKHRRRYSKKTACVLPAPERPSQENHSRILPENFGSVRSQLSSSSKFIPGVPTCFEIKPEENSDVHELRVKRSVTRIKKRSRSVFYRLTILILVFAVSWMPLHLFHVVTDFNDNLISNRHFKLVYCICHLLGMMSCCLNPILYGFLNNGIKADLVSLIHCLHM
From the text: as §2, §3, §4

human Y4 receptor = biological target: T6, human Y4 receptor (Homo sapiens, UniProt P50391); test: Binding at human neuropeptide Y Y4 receptor; conditions: Table 8; read-out: hY4 Ki
T6 construct: host or cells: L cells, line L-hY4-3
From the text: as §2, §3, §4

[2] = biological target: T7, serotonin (5HT) transporter (Rattus norvegicus, UniProt P31652); test: Binding at native serotonin transporter (5HT uptake); conditions: Table 8
T7 construct: evaluated at native, tissue-derived transporters; from tissue
How it was run: as §1

T6 sequence (P50391 whole entry): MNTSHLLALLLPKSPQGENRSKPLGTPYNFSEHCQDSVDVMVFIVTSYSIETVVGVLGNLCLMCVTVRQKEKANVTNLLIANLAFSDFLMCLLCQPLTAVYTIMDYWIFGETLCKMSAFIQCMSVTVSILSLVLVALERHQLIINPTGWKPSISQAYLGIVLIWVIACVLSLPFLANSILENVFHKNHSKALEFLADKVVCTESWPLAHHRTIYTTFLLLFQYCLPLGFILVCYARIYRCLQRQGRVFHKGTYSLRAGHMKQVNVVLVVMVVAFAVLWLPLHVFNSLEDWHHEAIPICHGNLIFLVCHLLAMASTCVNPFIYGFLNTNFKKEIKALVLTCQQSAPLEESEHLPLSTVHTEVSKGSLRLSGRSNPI
T2 sequence (Q9EQD2 whole entry): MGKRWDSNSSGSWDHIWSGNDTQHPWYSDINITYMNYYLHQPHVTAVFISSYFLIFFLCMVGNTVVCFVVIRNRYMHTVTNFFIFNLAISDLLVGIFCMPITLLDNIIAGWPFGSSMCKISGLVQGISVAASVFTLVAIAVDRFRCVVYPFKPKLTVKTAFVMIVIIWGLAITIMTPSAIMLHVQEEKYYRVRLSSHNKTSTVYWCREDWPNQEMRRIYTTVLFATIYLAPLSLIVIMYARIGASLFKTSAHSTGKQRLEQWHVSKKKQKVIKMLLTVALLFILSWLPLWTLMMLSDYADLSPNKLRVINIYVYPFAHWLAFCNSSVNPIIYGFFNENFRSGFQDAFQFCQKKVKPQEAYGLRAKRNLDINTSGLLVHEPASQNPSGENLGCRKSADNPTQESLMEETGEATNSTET
T7 sequence (P31652 whole entry): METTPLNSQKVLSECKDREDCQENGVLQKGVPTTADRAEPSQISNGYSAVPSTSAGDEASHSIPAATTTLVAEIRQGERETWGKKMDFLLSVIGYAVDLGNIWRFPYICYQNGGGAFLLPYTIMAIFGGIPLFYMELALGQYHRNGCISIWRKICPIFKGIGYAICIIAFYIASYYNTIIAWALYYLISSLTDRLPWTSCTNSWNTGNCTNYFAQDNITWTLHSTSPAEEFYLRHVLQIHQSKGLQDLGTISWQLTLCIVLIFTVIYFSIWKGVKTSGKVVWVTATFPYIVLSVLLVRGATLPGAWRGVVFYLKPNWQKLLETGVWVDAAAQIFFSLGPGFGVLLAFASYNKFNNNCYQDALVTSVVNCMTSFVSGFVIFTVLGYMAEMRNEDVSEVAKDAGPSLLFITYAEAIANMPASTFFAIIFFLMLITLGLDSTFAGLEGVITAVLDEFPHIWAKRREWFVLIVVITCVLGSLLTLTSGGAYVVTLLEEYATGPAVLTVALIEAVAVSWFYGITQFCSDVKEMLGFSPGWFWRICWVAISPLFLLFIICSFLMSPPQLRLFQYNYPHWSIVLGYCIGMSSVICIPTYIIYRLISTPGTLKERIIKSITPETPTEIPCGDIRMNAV
T1 sequence (Q63380 1-617): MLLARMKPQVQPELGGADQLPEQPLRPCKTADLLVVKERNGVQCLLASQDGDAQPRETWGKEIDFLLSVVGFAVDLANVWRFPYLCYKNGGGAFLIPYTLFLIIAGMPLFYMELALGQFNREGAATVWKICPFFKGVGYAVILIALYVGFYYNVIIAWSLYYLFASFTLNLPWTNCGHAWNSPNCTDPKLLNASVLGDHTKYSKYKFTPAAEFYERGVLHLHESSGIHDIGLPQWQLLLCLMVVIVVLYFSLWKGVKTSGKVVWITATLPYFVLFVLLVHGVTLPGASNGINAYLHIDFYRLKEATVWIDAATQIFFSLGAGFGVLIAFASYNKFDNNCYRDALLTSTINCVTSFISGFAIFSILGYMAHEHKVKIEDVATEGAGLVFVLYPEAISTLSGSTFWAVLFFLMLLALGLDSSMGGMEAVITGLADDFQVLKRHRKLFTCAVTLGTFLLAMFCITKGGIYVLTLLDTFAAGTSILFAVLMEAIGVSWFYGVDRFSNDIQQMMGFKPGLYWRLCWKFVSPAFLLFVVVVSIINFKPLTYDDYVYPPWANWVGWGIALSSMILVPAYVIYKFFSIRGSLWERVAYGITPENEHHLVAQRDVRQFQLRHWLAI

Row | SMILES | pKi [1] | rNPFF2 IA (rat NPFF2 receptor) [% NPFF] | pKi (human Y1 receptor) | pKi (human Y2 receptor) | pKi (human Y5 receptor) | pKi (human Y4 receptor) | pKi [2]
1 | Cc1nc(NC(=N)N)nc2ccc3ccccc3c12 [Compound 1007A] | 5.71 | 66 | 5.28 | < 4.30 | 7.13 | 5.58 | 7.59
2 | Cc1cc(NC(=N)N)nc2ccc(Cl)cc12 [Compound 4005A, N-(6-chloro-4-methyl-2-quinolinyl)guanidine] | 5.08 | 61 | 4.91 | < 4.30 | 6.45 | 5.30 | 5.59

— patent publication US20030176314A1, “Compounds for the treatment of pain” (priority 2001, published 2003)
